Patent US20260306524A1, “Guanidinylated Amphiphilic Tobramycin Derivates and B-Lactam/B-Lactamase Inhibitor Combinations for Treatment of Pseudomonas Aeruginosa Infections” (University of Manitoba, priority 2023, published 2026)
Where two headings read alike, the source gives them in different places.

What was measured:
[1] = Cell viability (cytotoxicity) assay, HEK293; format: cell-based, human; conditions: human, hek293 cells
Protocol: (§1) As an initial screening of the toxicity, the cell viability of the tobramycin derivatives was assessed in human embryonic kidney (HEK) 293 cell lines. Polymyxin B was utilized as […] and by being a membrane permeabilizing amphiphile resembling the tobramycin derivatives.
(§2) The cytotoxicity assay was conducted as previously described (24, 30). HEK293 cells were cultured in flasks with Dulbecco's Modified Eagle's Medium (DMEM) supplemented with 10% fetal bovine serum. The cells were incubated at 5% CO2 in a humidified atmosphere at 37° C. 50 μL of media containing approximately 8000 cells were added to designated wells in a 96-well plate. The wells containing only media with no cells served as blanks. The plate was incubated for 24 h. A volume of 50 μL of doubled the final desired concentrations of the agent were subsequently added to the experimental and blank wells. After 48 h incubation, PrestoBlue reagent from Invitrogen (United States) was added to a final concentration of 10% (v/v) and plates were incubated for an additional 1 hour at 5% CO2. Fluorescence was measured with excitation and emission wavelengths of 560 and 590 nm, respectively, using the Molecular Devices (United States) SpectraMax M2 plate reader. Values from the blank wells were subtracted from the corresponding wells with cells. The cell viability relative to the controls with vehicle was calculated. The plots indicate the mean±standard deviation of two experiments with five samples each.

HEK293 cells = experiment: Cell viability (cytotoxicity) assay, HEK293; format: cell-based, human; conditions: for cell viability compared to 1: HEK293, up to 600 μM; for cell viability compared to non-guanidinylated counterpart: HEK293, higher concentrations
Protocol: as §1, §2

[2] = test system: MDR clinical isolates of P. aeruginosa; experiment: MIC against MDR clinical isolates; format: cell-based; conditions: Pseudomonas aeruginosa, 18 h; all MDR strains tested, alone
Protocol: The synergism of the guanidinylated amphiphilic tobramycin derivatives with ceftazidime, aztreonam and piperacillin against PAO1 prompted further investigation against MDR clinical isolates of P. aeruginosa. Prior to the checkerboard assays, the MICs of 5 and 8 were determined to be >128 μg/mL against all strains tested.
All antibiotics were purchased from commercial sources. Bacterial isolates were obtained from the American Type Culture Collection (ATCC), and from the Canadian National Intensive Care Unit (CAN-ICU) (59) and Canadian Ward (CANWARD) surveillance studies (60). CAN-ICU and CANWARD clinical isolates were collected from patients with presumed infectious diseases admitted in participating Canadian medical centers either to the intensive care unit or medical wards. Prior to microbiological testing, bacterial cultures were grown overnight in lysogeny broth (LB) at 37° C., shaking at 250 rpm.
(§3) The broth microdilution assay was performed in accordance with standard protocols as previously described (61). […] After incubation, Molecular Devices (United States) Emax Plus microplate reader was used to measure the optical density (OD) at a wavelength of 590 nm to confirm the turbidity. The minimum inhibitory concentration (MIC) was determined as the lowest concentration that inhibited visible bacterial growth.

PA 107092 = experiment: Time-kill kinetics assay, PA 107092; format: cell-based, Pseudomonas aeruginosa
Protocol: (§4) To elucidate the mechanistic killing of the triple combination studies, the time-kill kinetics assay was performed as previously described (32). […] 8 μg/mL of ceftazidime and 2 μg/mL avibactam were used to reflect the clinically used 4:1 ratio.
(§5) Time-kill curve analyses were performed as previously described (32). An inoculum of the culture was then diluted in 0.85% saline solution to attain 0.5 McFarland turbidity. The inoculum was further diluted in lysogeny broth (LB) containing different antibiotic and adjuvant concentrations. The culture tubes were incubated at 37° C., shaking at 250 rpm. At specific time intervals, an aliquot was taken from each tube, serially diluted in sterile phosphate-buffered saline (PBS) and plated on LB agar plates. The plates were incubated at 37° C. overnight and the bacterial colonies were counted the subsequent day. The bactericidal or bacteriostatic activity was determined based on the decrease in CFU over the designated time period. Bactericidal activity corresponded to ≥3 log reduction in CFU/mL, while bacteriostatic activity corresponded to <3 log reduction in CFU/mL.

[3] = test system: β-lactamase harboring P. aeruginosa isolates; experiment: Checkerboard dual and triple combinations, β-lactamase harboring isolates; format: cell-based, Pseudomonas aeruginosa; conditions: checkerboard assays
Description: (§6) Since the main resistance mechanism against BL antibiotics is the hydrolysis by β-lactamase enzymes (46), it is imperative that the synergy evaluation is extended to P. aeruginosa strains containing these enzymes. Based on the results of the checkerboard assays against the MDR strains, the synergy of 5 and 8 with ceftazidime and aztreonam was further assessed against β-lactamase harboring P. aeruginosa isolates. These strains are characterized by their increased susceptibility to ceftazidime with the addition of avibactam. In addition, a triple combination therapy consisting of the tobramycin derivative, either BL antibiotic and avibactam was also investigated.
(§7) The checkerboard assay was conducted as previously described (61). The bacterial solution was prepared as described in the broth microdilution method. The antibiotic of interest was serially diluted two-fold along the x-axis, and the adjuvant is serially diluted two-fold along the y-axis in a 96-well plate. Equal volumes of bacterial solution were added to the designated wells. The first row and columns are used to verify the MIC of the antibiotic and adjuvant, respectively. […] After incubation, Molecular Devices (United States) Emax Plus microplate reader was used to measure the OD at a wavelength of 590 nm. […]

P. aeruginosa PAO1 [4] = experiment: Potentiation of rifampicin, PAO1; format: cell-based, Pseudomonas aeruginosa
Description: Another evidence of OM permeabilization is the ability of the guanidinylated amphiphilic tobramycin derivatives to synergize with membrane-impermeable antibiotics such as rifampicin. 5 and 8 potentiated rifampicin by 16- and 64-fold, respectively, against PAO1. Rifampicin has limited capacity in crossing the OM of Gram-negative bacteria, and is restricted to treating infections caused by Mycobacteria and Gram-positive cocci (48). Unlike the BL antibiotics that permeate the OM through a porin-mediated uptake, the large molecular weight and hydrophobicity of rifampicin make it unable to enter the narrow porins, and rely on slow passive diffusion to traverse the lipid bilayer (49). Therefore, the augmented potency of rifampicin against P. aeruginosa is linked to its increased intracellular concentration through OM destabilization.
as §7, with “wells.” for “wells. The first row and columns are used to verify the MIC of the antibiotic and adjuvant, respectively.”

PA 86052 = experiment: Time-kill kinetics assay, PA 86052; format: cell-based, Pseudomonas aeruginosa
Protocol: as §4, §5

P. aeruginosa PAO1 [5] = experiment: Checkerboard synergy with β-lactam antibiotics, PAO1; format: cell-based, Pseudomonas aeruginosa; conditions: for active concentration: equivalent to 6 μM
Protocol: After establishing the MIC of the tobramycin derivatives, the ability of these adjuvants to synergize with BL antibiotics was investigated against P. aeruginosa PAO1. The checkerboard assays were conducted as previously described and in accordance with the CLSI guidelines (37). Synergy was defined by at least a 4-fold reduction in the MICs of both adjuvant and antibiotic. The panel of antibiotics are comprised of commonly used antipseudomonal agents and represent the different BL subclasses—cephalosporin (ceftazidime), monobactam (aztreonam), penicillin (piperacillin) and carbapenems (imipenem and meropenem) (12).
The checkerboard assay was conducted as previously described (61). The bacterial solution was prepared as described in the broth microdilution method. The antibiotic of interest was serially diluted two-fold along the x-axis, and the adjuvant is serially diluted two-fold along the y-axis in a 96-well plate. Equal volumes of bacterial solution were added to the designated wells. The first row and columns are used to verify the MIC of the antibiotic and adjuvant, respectively. The well containing only broth served as negative control, while the well containing the broth and bacterial solution served as positive control. The plate was then incubated at 37° C. for 18 hours. After incubation, Molecular Devices (United States) Emax Plus microplate reader was used to measure the OD at a wavelength of 590 nm. Synergy was determined by at least a 4-fold reduction of the MIC of both agents.

[6] = test system: β-lactamase harboring P. aeruginosa isolates; experiment: MIC against β-lactamase harboring isolates; format: cell-based; conditions: Pseudomonas aeruginosa, 18 h
Description: as §6
as §3, with “(61). An inoculum of the culture was diluted in 0.85% saline solution to attain 0.5 McFarland turbidity. The inoculum was further diluted in Mueller-Hinton broth (MHB) for inoculation to a final concentration of 5×10^5 colony forming units/mL (CFU/mL). The agents were serially diluted two-fold in CA-MHB in a 96-well plate.” for “(61).”

NC[C@H]1O[C@H](O[C@H]2[C@H](OCc3ccc(-c4ccccc4)cc3)[C@@H](O[C@H]3O[C@H](CO)[C@@H](O)[C@H](N)[C@H]3O)[C@H](N)C[C@@H]2N)[C@H](N)C[C@@H]1O [Compound 7, 5-O-(4-Methylbiphenyl)-tobramycin]
viability at 48 h, 600 µM ([1]; HEK293, up to 600 μM): 86 to 101%
cell viability compared to 1 (HEK293 cells): comparable to 1

N=C(N)NC[C@H]1O[C@H](O[C@H]2[C@H](OCc3ccc(-c4ccccc4)cc3)[C@@H](O[C@H]3O[C@H](CO)[C@@H](O)[C@H](NC(=N)N)[C@H]3O)[C@H](NC(=N)N)C[C@@H]2NC(=N)N)[C@H](NC(=N)N)C[C@@H]1O [Compound 8, 5-O-(4-Methylbiphenyl)-guanidinotobramycin]
MIC [2]: > 128 µg/mL
log reduction in CFU/mL, triple combination (PA 107092; 8 μg/mL of 8, ceftazidime 8 μg/mL, avibactam 2 μg/mL, at 4 hours): 3 log
lowest concentration wherein synergy was observed [3]: 8 µg/mL
viability at 48 h, 600 µM ([1]; HEK293, 600 μM): 79.8%
selectivity ratio ([1]; HEK293, active concentration 8 μg/mL, read-out: non-cytotoxic concentration (600 μM, 848.04 μg/mL) as multiple of active concentration): ~106
cytotoxicity up to approximately 106 times the active concentration (HEK293 cells; HEK293): non-cytotoxic
cytotoxicity compared to PMB (HEK293 cells; HEK293, 600 μM): reduced cytotoxicity than PMB
cell viability compared to non-guanidinylated counterpart (HEK293 cells): slight decrease in the cell viability
fold potentiation of rifampicin (P. aeruginosa PAO1 [4]): 64 fold
log reduction in CFU/mL, triple combination (PA 86052; 8 μg/mL of 8, ceftazidime 8 μg/mL, avibactam 2 μg/mL, within 8 hours): > 3 log
time to bactericidal effect, triple combination (PA 86052; 8 with ceftazidime/avibactam): ≤ 8 h
active concentration (P. aeruginosa PAO1 [5]): ~ 8 μg/mL

CCCCCCCCOC1C(OC2OC(CNC(=N)N)C(O)CC2NC(=N)N)C(NC(=N)N)CC(NC(=N)N)C1OC1OC(CO)C(O)C(NC(=N)N)C1O (stereo not shown) [Compound 5, 5-O-(Octyl)-guanidinotobramycin]
MIC [2]: > 128 µg/mL
viability at 48 h, 600 µM ([1]; HEK293, 600 μM): 63.8%
cytotoxicity compared to PMB (HEK293 cells; HEK293, 600 μM): comparable toxicity
fold potentiation of rifampicin (P. aeruginosa PAO1 [4]): 16 fold
active concentration (P. aeruginosa PAO1 [5]): ~ 8 μg/mL

COc1cccc2c1C(=O)c1c(O)c3c(c(O)c1C2=O)C[C@@](O)(C(=O)CO)C[C@@H]3O[C@H]1C[C@H](N)[C@H](O)[C@H](C)O1 [Doxorubicin, reference compound]
viability at 48 h, 125 µM ([1]; HEK293, 125 μM): 0%

CCCCCCCCOC1C(OC2OC(CN)C(O)CC2N)C(N)CC(N)C1OC1OC(CO)C(O)C(N)C1O (stereo not shown) [Compound 4, 5-O-(Octyl)-tobramycin]
viability at 48 h, 600 µM ([1]; HEK293, up to 600 μM): 86 to 101%
cell viability compared to 1 (HEK293 cells): comparable to 1

CCCCCCCCCCCCOC1C(OC2OC(CN)C(O)CC2N)C(N)CC(N)C1OC1OC(CO)C(O)C(N)C1O (stereo not shown) [Compound 3]
cytotoxicity (HEK293 cells; HEK293, at 600 μM, relative to tobramycin): highly toxic relative to tobramycin, causing cell death at 600 μM

CC(C)(O/N=C(\C(=O)N[C@@H]1C(=O)N2C(C(=O)[O-])=C(C[n+]3ccccc3)CS[C@H]12)c1csc(N)n1)C(=O)O [ceftazidime, reference compound]
antibacterial effect over 24 h, monotherapy (PA 107092; 8 μg/mL ceftazidime): ineffective
MIC ([6]; all five β-lactamase harboring strains, read-out: MIC of ceftazidime monotherapy): 64 to 128 µg/mL
antibacterial effect over 24 h (PA 86052; 8 μg/mL ceftazidime, 2 μg/mL avibactam): did not exhibit any antibacterial effect

C[C@H]1[C@H](NC(=O)/C(=N\OC(C)(C)C(=O)O)c2csc(N)n2)C(=O)N1S(=O)(=O)O [aztreonam]
MIC ([6]; five β-lactamase harboring strains, read-out: MIC of aztreonam monotherapy): 32 to 128 µg/mL

NCCCCCCCCOC1C(OC2OC(CN)C(O)CC2N)C(N)CC(N)C1OC1OC(CO)C(O)C(N)C1O (stereo not shown) [Compound 6, 5-O-(8-Aminooctyl)-tobramycin]
cell viability at 600 μM compared to 4 (HEK293 cells; HEK293, 600 μM): lower in comparison to 4
fold potentiation of ceftazidime (P. aeruginosa PAO1 [5]; PAO1, 8 μg/mL of adjuvant): 4 fold

Polymyxin B [PMB, reference compound]
cell viability (HEK293 cells; HEK293, 600 μM, 2880 min): 64.7%

N=C(N)NC[C@H]1O[C@H](O[C@H]2[C@H](O)[C@@H](O[C@H]3O[C@H](CO)[C@@H](O)[C@H](NC(=N)N)[C@H]3O)[C@H](NC(=N)N)C[C@@H]2NC(=N)N)[C@H](NC(=N)N)C[C@@H]1O [Compound 2, guanidinylated tobramycin, reference compound]
cell viability compared to non-guanidinylated counterpart (HEK293 cells): slight decrease in the cell viability
